The values that follow come from patent US9682994B2, “Inhibitors of retroviral replication” (The Scripps Research Institute, priority 2011, dated 2017).

“Also recorded” adds a separate entry of the source.

One data set deals with Tat. As to the kind of experiment: Biotinylated compound streptavidin-bead pull-down of Tat. It is filed as binding, HIV-1. Particulars: flag-tagged Tat expressed in cells or recombinant Tat. The protocol:
(§1) HEK293T cells were transfected with flag-tagged Tat 101 a.a. (Tat-F-101-wt), a shorter Tat version with 86 a.a. (Tat-F-86-wt), Tat 86 a.a. mutated in the basic domain (Tat-F-BRM), flag-tagged CDK11 (CDK11-F), flag-tagged 9G8 (9G8-F) and empty vector control.
Recombinant Tat protein was incubated with Bio-dCA streptavidin-coated beads in the presence or absence of an excess of non-biotinylated dCA (represented as molar equivalent [eq.] of Bio-dCA). Raltegravir and recombinant GST-9G8 were used as a negative control competitor or as negative protein-binding control, respectively.
(§2) DYNABEADS® MYONE™ Streptavidin T1 (12.5 μl slurry) (Invitrogen) were pre-saturated with 1.88 μl of 1 mM in DMSO of Biotin alone or Bio-dCA and incubated for 1 h at room temperature with orbital rocking, plus an additional 30 min with Biotin (0.63 μl of 1 mM in DMSO). Protein extracts (250 μg per sample) were incubated with the pre-saturated beads in lysis buffer supplemented with 0.1% BSA for 1 h at 4° C. with orbital rocking. After incubation, the beads were washed three times with lysis buffer.
For the pull-down of recombinant Tat (#2222 of NIH) and GST-9G8, streptavidin-agarose beads (40 μl slurry) were pre-saturated with 1.5 μl of 1 mM in DMSO, Biotin alone, or Bio-dCA and incubated for 1 h at room temperature. […] After incubation, the beads were washed three times with PBS and proteins were eluted as before.

In data set [1] the test system is basic region Tat mutant (Tat-1 BRM). Nature of the data set: Biotinylated compound pull-down of basic region Tat mutant. It is filed as binding, HIV-1. The procedure:
as §1, §2

Another data set deals with CDK11 (Homo sapiens, UniProt P21127). As to the kind of experiment: In vitro CDK11 kinase assay with 9G8 as substrate. It is filed as biochemical. The protocol:
To the mixture, 100 μM of ATP and 5 μCi of γ-^32P-ATP (3000 Ci/mmol 10 mCi/ml) were added to a final volume of 30 μl in kinase buffer. Following 30 min at 30° C., the reaction was terminated by addition of 6 μl of 6× SDS loading buffer. After boiling for 10 min, proteins were separated by SDS-PAGE. The gel was dried and visualized by autoradiography.

A further data set concerns HIV-1 promoter. Nature of the data set: Elongation from HIV-1 promoter by qRT-PCR in chronically infected HeLa cells. It is filed as cell-based. The following applies: dose-dependent. From the text:
FIG. 3B: HIV-1 elongation from HIV-1 promoter measured by qPCR. […] All messages were normalized relative to GAPDH mRNA. The 100% value was arbitrarily assigned to the amounts of viral mRNA generated in the absence of compound, measured at 100 bp from start site. Right panel: Plotting of data obtained in left panel, setting each data point obtained with the 100 bp primer set at 100% and comparing to results obtained with 5.3 kb primer set.
For these studies, the amounts of viral RNA present at different distances from the promoter were measured using sets of oligonucleotide primer pairs specific to quantify transcripts made up to 100 bp, 5.3 kb or 8.5 kb from the transcription start site (FIG. 3A). It was observed that even in the absence of drug, elongation from the HIV-1 viral promoter is not very efficient. In the presence of DMSO alone only 30% of 5.3 kb long transcripts and 6% of 8.5 kb long transcripts were produced (FIG. 3B—left panel).

The subject of data set [2] is HIV-2 (ROD/A). Nature of the data set: Acute HIV-2 replication in HeLa-CD4 cells, p24 ELISA. Particulars: p24, 5 days post-infection. It is filed as cell-based. From the text:
Antigen p24 in the supernatant measured using a sandwiched ELISA kit, 5 days post-infection.

For data set [3], the system named is HIV-2 (ROD/A). Nature of the data set: Chronic HIV-2 replication in HeLa-CD4 cells, p24 ELISA. It is filed as cell-based. Particulars: p24, 7 days; read-out: EC50, chronic infection by HIV-2. From the text:
Antigen p24 in the supernatant measured as in FIG. 5F, 7 days post-infection.

A further data set has as its system HIV-1 pNL43. As to the kind of experiment: HIV-1 replication in PHA/IL-2 stimulated human PBMCs, p24 ELISA. Format: cell-based. The procedure:
Freshly isolated uninfected human PBMCs were stimulated with PHA for two days, washed, and grown from then on in IL-2 alone. […] Antigen p24 was measured 5 days post infection using a sandwich ELISA kit.
To isolate PBMCs, 24 ml of total blood diluted two fold in RPMI or PBS were carefully layered over 12 ml of Ficoll-paque and centrifuged at 2000 rpm for 20 min (brakes off). Resultant layers are approximately from top to bottom: plasma-platelets-PBMC-Ficoll-red blood cells (with granulocytes). Most of the plasma was pipetted off and discarded. The buffy coat with PBMC's was carefully removed from 3 large (50 ml) tubes and transferred to a new 50 ml tube. The remaining Ficoll and red blood cells were discarded in closed tubes. Enough PBS was added to the PBMCs to make up 50 ml and centrifuged at 1200 rpm for 10 min, brakes on. The supernatant was decanted and the pellet was loosened and washed twice with PBS. Washed pellet was recovered in 30 ml of RPMI 1640 supplemented with 10% serum, 1% Penicillin-streptomycin and mixed well. PBMCs were counted and plated at 1×10^6 cells/ml. To activate the PBMCs, PHA (phytohaemagglutinin) was added at 3 μg/ml. Two to three days later add Interleukin 2 (IL2) at 3×10^−3 μg/ml.
PHA activated PBMCs were centrifuged and recovered at 6×10^6 cells in 3 ml complete RPMI. Then 3 ml of viral supernatant was added and incubated for 4 h at 37° C. After this period, cells were centrifuged, washed 3 times with PBS and recovered in 3 ml complete RPMI. PBMCs were plated at 0.5 ml per well in a 6-well plate, and 0.5 ml media with DMSO control or anti-viral control at 2× final concentration was added. IL-2 was added at 3×10^−3 μg/ml. Supernatant was recovered for p24 assay every 3-4 days post infection. Cells were split at 1×10^6 cell per ml every 5-7 days.
HIV-1 transcription is intimately linked to T-cell activation due to shared motifs between the HIV-LTR and the regulatory regions in induced genes, namely NF-κB. A large variety of T cell stimuli activate NF-κB, including PHA, IL-2 and tumor necrosis factor alpha (TNF-α).

Data set [4] is described as follows: Hepatic microsomal stability, human. Particulars: 1 μM, 0.2-1 mg/ml microsomes, NADPH 1 mM. Format: in vitro ADME.
Excerpt: In vitro studies compared murine and human hepatic microsomes (150 donor mixed male/female pool).

Chain of CDK11 (P21127 whole entry): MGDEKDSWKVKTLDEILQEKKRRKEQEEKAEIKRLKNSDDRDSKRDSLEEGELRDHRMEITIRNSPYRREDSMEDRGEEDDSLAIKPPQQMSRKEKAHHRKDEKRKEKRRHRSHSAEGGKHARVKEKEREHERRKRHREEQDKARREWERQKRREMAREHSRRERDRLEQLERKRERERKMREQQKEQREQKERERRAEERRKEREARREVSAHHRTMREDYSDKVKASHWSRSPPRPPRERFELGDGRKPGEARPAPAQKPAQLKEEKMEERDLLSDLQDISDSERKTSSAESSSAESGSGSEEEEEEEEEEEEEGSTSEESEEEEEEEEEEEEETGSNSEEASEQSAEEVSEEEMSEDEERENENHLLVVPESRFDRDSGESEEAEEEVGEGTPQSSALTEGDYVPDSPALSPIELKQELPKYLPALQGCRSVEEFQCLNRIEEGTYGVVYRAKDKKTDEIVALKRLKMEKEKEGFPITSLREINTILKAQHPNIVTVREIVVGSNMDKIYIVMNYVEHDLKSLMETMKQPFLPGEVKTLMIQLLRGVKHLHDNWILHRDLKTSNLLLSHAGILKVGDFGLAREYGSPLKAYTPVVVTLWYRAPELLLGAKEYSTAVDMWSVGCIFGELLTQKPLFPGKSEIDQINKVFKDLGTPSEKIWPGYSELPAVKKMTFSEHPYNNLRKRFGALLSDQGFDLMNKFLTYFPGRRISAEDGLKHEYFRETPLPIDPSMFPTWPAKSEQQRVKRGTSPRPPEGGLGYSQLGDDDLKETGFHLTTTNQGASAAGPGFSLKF

Consider `CN(C)[C@H]1C[C@@]23CC[C@@]4(O2)C(=CC[C@]2(C)C(c5ccc6ccncc6c5)=CC[C@H]24)C=C3[C@@H](O)[C@@H]1O` [dCA, didehydro-Cortistatin A], for which, in the data set on Tat, the “interaction with Tat (pull-down)” value was “interacted directly”. The “interaction with TAR-nonbinding basic region Tat mutant (pull-down)” value in data set [1] is reported as “not”. Also, the “in vitro CDK11 kinase activity” value at CDK11 is given as “unable to block; also recorded: did not inhibit”. The “production of longer viral RNA species (elongation)” value in the data set with HIV-1 promoter is reported as “further decreased the production of longer viral RNA species”. For the same molecule, the EC50 in the data set with HIV-2 (ROD/A) [2] was ~5 nM; in the data set on HIV-2 (ROD/A) [3], ~1.7 nM; in the data set on HIV-1 pNL43 (p24 ELISA, 5 days post infection, read-out: EC50, HIV-1 replication in primary cells (PBMCs)) it was < 1 nM. For the same molecule, the “maximum inhibition plateau in PBMCs” value in the data set on HIV-1 pNL43 is listed as 86%. Also, the “T1/2 hepatic microsomes, Human” value in data set [4] was found to be 1 h.
